Test results published in PMC8147781, “Discovery of Pyrrolidine-2,3-diones as Novel Inhibitors of P. aeruginosa PBP3” (Antibiotics, 2021).
≈ marks a conversion by molar mass, not a printed value.

Experiments:
[1] = system: P. aeruginosa PAO1 (wild-type strain); assay: MIC broth microdilution, P. aeruginosa PAO1; format: cell-based, Pseudomonas aeruginosa
Text: (§1) The results presented above implied that seven pyrrolidine-2,3-dione derivatives inhibited the activity of ^PaPBP3 in vitro. Consequently, we were very interested in investigating the potential of these compounds to affect the growth of P. aeruginosa. Two P. aeruginosa bacterial strains (the wild-type PAO1 and the isogenic ΔmexB ΔmexX ΔmexCD-oprJ efflux pump mutant) were used to determine the MIC and the potential role of the main P. aeruginosa efflux systems in compound uptake. To increase the antibacterial sensitivity of the tested P. aeruginosa isolates to the potential inhibitors, we performed MIC experiments in the presence and absence of a sub-MIC concentration (4 µg/mL) of the outer membrane permeabilising polymyxin B nonapeptide (PMBN). […] Thus, we concluded that the physicochemical properties of the pyrrolidine-2,3-dione compounds were perhaps not yet favourable enough to cross the P. aeruginosa cell envelope without a permeabiliser because of their high hydrophobicity.
(§2) The wild-type P.aeruginosa PAO1 and the isogenic P. aeruginosa K2896 ΔmexBΔmexXYΔmexCD-oprJ isolates were used to determine the MIC in the presence and absence of PMBN [48].
(§3) MIC determination was performed via standard broth microdilution according to the Clinical & Laboratory Standards institute guidelines. Overnight colonies grown on BD-Columbia agar with 5% Sheep Blood (Becton Dickinson, Franklin Lakes, NJ, USA), were diluted in Mueller Hinton Broth 2 cation adjusted (MH+) medium (Thermo Fisher Scientific) to a concentration of 5 × 10^5 CFU/mL. Serial dilutions (1:2) of test compounds were incubated at 37 °C with 5 × 10^4 bacteria in a final volume of 100 μL. Sterile and growth controls in the presence of 1% DMSO and PMBN if the case, and the positive controls, aztreonam (AZT) and tigecycline (TIG) were included in the experiments (Table S4). The MICs were determined visually after 18 h at 37 °C and confirmed by the addition of 10% PrestoBlue (ThermoFisher Scientific) reagent according to the manufacture’s protocol. The fluorescence signal of PrestoBlue reagent was measured at Ex/Em: 550/595 nm after 30 min incubation at 37 °C using at a ClarioStar microplate reader (BMG Labtech). PrestoBlue reduction occurs in the presence of living cells and consequently turns red in colour and is highly fluorescent.

[2] = system: P. aeruginosa K2896 ΔmexBΔmexXYΔmexCD-oprJ; assay: MIC broth microdilution, P. aeruginosa K2896 efflux mutant; format: cell-based, Pseudomonas aeruginosa
Text: as §1, §2, §3

[3] = system: E. coli Neumann; assay: MIC broth microdilution, E. coli; format: cell-based; settings: Escherichia coli; PMBN 0 µg/mL, control compounds; read-out: MIC (µM) E. coli Newmann
Method: as §3

[4] = system: K. pneumoniae clinical isolate; assay: MIC broth microdilution, K. pneumoniae; format: cell-based; settings: control compounds
Method: as §3

[5] = system: A. baumannii ATCC15308; assay: MIC broth microdilution, A. baumannii; format: cell-based; settings: Acinetobacter baumannii, control compounds
Method: as §3

[6] = system: S. pneumoniae; assay: MIC broth microdilution, S. pneumoniae; format: cell-based; settings: Streptococcus pneumoniae, 18 h; PMBN 0 µg/mL, control compounds; read-out: MIC (µM) S. pneumoniae
Method: as §3

[7] = system: B. subtilis 168; assay: MIC broth microdilution, B. subtilis; format: cell-based; settings: Bacillus subtilis, 168, 18 h; PMBN 0 µg/mL, control compounds
Method: as §3

[8] = system: S. aureus 133; assay: MIC broth microdilution, S. aureus; format: cell-based; settings: Staphylococcus aureus, 133, 18 h; PMBN 0 µg/mL, control compounds
Method: as §3

[9] = target: T1, PBP3 of P. aeruginosa (PaPBP3) (Pseudomonas aeruginosa, UniProt G3XD46); assay: S2dfluo fluorescence transpeptidase assay; format: biochemical; settings: for IC50: 300 nM PaPBP3, 30 min preincubation, 37 °C, read-out: IC50 Determination with PaPBP3, S2dfluo Assay; for inhibition at 100 µM: read-out: PBP3 Inhibition at 100 µM (%)
T1 construct: P. aeruginosa PBP3 (amino acids 40 to 563); His-tag; made in house; host or cells: E. coli BL21 (DE3) Rosetta, plasmid pET41_PBP-3
Method: The assays were carried out in the presence of 5% DMSO and 0.01% Triton X100 to avoid the formation of colloidal structures and adsorption of protein and/or compounds to surfaces. The Z’-factor determined for the assay was 0.73 ± 0.28, indicating the suitability and robustness of the assay for high throughput screening (HTS) (Figure 1B,C).
The activity of soluble ^PaPBP3 (300 nM) was measured in the presence of 0.8 mM S2d, 1 mM D-alanine and 0.5 mM mBBr for 25 min by monitoring the increase in the fluorescence intensity of mBBr at Ex/Em: 394/490 nm using an Infinite M1000 microplate reader (Tecan, Männedorf, Switzerland). To test the effect of inhibitors, 100 µM or 0.8 to 100 µM of compounds diluted in 96% DMSO were incubated for 30 min and 450 rpm with 300 nM soluble PBP3. The incubation period was set to improve the binding of non-covalent inhibitors and 0.01% Triton X100 (Sigma-Aldrich, Taufkirchen, Germany) was added to prevent aggregation of compounds. The enzyme reaction was started by adding a substrate mix of 0.8 mM S2d and […]. The enzyme, compound and substrate mix were mixed 1:1, pipetted with a Liquidator 96 (Melter Toledo, Gießen, Germany) and the fluorescence intensity was directly monitored with an Infinite M1000 microplate reader (Tecan) at Ex/Em: 394/490 nm. The assay was performed in black, flat-bottom 96-well microplates (Greiner Bio-One, Kremsmünster, Austria) at 37 °C in Sorensen Phosphate Buffer (57 mM Na2HPO4 and 10 mM KH2PO4, pH 7.5 + 0.01% Triton X-100). The velocity of the PBP3 reaction was calculated in the presence of each concentration of compound and the velocity values were used to estimate IC50 by sigmoidal nonlinear regression, using Prism v.9 software (San Diego, CA, USA) and the velocity of the reaction at each concentration.

[10] = target: T1, PBP3 of P. aeruginosa (PaPBP3); assay: FP-Bocillin FL competition assay; format: binding; settings: 30 min preincubation before Bocillin FL, 37 °C; for IC50: read-out: IC50 Determination with PaPBP3, FP-Bocillin FL Assay
Method: Bocillin FL is a fluorescent penicillin V derivate used as a competitor for PBP inhibitors.
Fluorescence polarisation (FP) experiments were carried out as described before. To determine the binding of Bocillin FL to PBP, 200 nM of ^PaPBP3 was incubated for 30 min with 100 nM of Bocillin FL (Thermo Fisher Scientific, Waltham, MA, USA). The fluorescence polarisation signal of free Bocillin FL was monitored in a Pherastar microplate reader (BMG Labtech, Ortenberg, Germany) in the polarisation mode with Ex/Em: 485/520 nm excitation and emission filters. Millipolarisation (mP) units were calculated using the MARS data analysis software v30.40.R2 (BMG Labtech, Ortenberg, Germany). All the experiments were done in Sorensen buffer at 37 °C using flat-bottom, black 96-well plates. […] Bocillin FL was diluted in Sorensen buffer and added to the reaction and directly measured for 30 min at 37 °C. The FP was continuously measured in the presence and absence of compound and enzyme. […] The estimated IC50 values were established by sigmoidal nonlinear regression, using Prims v.8 software.

T1 sequence (G3XD46 40-563): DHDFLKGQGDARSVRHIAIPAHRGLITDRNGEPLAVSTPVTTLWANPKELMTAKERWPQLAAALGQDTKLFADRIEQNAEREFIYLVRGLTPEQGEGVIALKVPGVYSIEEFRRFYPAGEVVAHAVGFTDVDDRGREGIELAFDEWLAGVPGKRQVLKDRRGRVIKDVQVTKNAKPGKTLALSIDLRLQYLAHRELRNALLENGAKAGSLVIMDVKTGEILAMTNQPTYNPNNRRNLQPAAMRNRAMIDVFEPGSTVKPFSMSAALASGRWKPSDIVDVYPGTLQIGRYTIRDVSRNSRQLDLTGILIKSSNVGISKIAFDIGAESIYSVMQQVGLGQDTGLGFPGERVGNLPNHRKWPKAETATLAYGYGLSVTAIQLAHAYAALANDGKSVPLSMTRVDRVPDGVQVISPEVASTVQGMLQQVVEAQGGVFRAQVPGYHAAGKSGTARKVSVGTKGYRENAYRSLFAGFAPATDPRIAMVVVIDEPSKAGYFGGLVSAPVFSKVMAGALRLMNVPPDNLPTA

Row | SMILES | IC50 [9] [µM] | inhibition at 100 µM [9] [%] | IC50 [10] [µM] | IC50 Determination with PaPBP3, FP-Bocillin FL Assay [10] | also measured
1 | C[C@H]1[C@H](NC(=O)/C(=N\OC(C)(C)C(=O)O)c2csc(N)n2)C(=O)N1S(=O)(=O)O [Aztreonam, aztreonam, reference compound] |  |  |  |  | MIC ([1]; Pseudomonas aeruginosa, PAO1, PMBN 0 µg/mL (absence of PMBN)): > 1.2 µM; MIC (µM) against P. aeruginosa PAO1 ([1]; wild-type strain, with 4 µg/mL PMBN): 0.58 µM (≈ 0.253 µg/mL); MIC ([2]; Pseudomonas aeruginosa, read-out: MIC (µM) P. aeruginosa K2896): 0.575 µM (≈ 0.25 µg/mL); MIC (µM) against P. aeruginosa K28926 ([2]; ΔmexB, ΔmexX, ΔmexCD-oprJ, with 4 µg/mL PMBN): 0.29 µM (≈ 0.126 µg/mL); MIC [3]: 0.287 µM (≈ 0.125 µg/mL); MIC ([4]; PMBN 0 µg/mL): 0.143 µM (≈ 0.0623 µg/mL); MIC ([4]; PMBN 50 µg/mL): 0.071 µM (≈ 0.0309 µg/mL); MIC ([5]; ATCC15308, PMBN 0 µg/mL): > 1.2 µM; MIC ([5]; ATCC15308, PMBN 50 µg/mL): 0.58 µM (≈ 0.253 µg/mL); MIC [6]: > 1.2 µM; MIC [7]: > 1.2 µM; MIC [8]: > 1.2 µM
2 | CCCCCCOc1cccc(N2C(=O)C(O)=C(C(=O)c3ccccc3)C2c2ccc(C(C)C)cc2)c1 (stereo not shown) [Compound 2] | 4 ± 6 | 101 ± 0.4 | 17 ± 9 |  | 
3 | CCCCCCOc1cccc(N2C(=O)C(O)=C(C(=O)c3ccccc3)C2c2ccccc2F)c1 (stereo not shown) [Compound 3] | 19 ± 1 | 100 ± 0.8 | > 100 | failed to inhibit Bocillin FL binding | 
4 | CCOC(=O)c1ccc(N2C(=O)C(O)=C(S(=O)(=O)c3ccccc3)C2c2ccc(C(C)C)cc2)cc1 (stereo not shown) [Compound 4] | 24 ± 20 | 101 | > 100 | failed to inhibit Bocillin FL binding | 
5 | COc1ccc(N2C(=O)C(O)=C(C(=O)c3ccc4c(c3)OCO4)C2c2ccc(Br)cc2)cc1 (stereo not shown) [Compound 5] | 61 ± 1 |  | 69 ± 13 |  | 
